This is an account of results in US20050143453A1, “Selective preventing and therapeutic agents for progressive lesion after organic damage” (priority 2000, published 2005).

Experiment [1] has as its system induction of effector macrophage by contact of human PBMC with mitomycin-treated human PBMC (allo-MLC). Kind of experiment: SPFC production by allo-MLC stimulation (Test Example 2). Format: cell-based. To be noted: for functional group (selective suppression of SPFC production by allo-MLC or LPS stimulation): summary of Table 1.
The test system of experiment [2] is induction of effector macrophage by contact of human PBMC with lipopolysaccharide. Description: SPFC production by LPS stimulation (Test Example 1). It counts as cell-based. As for the experimental part: A suppressive effect of the test compound to effector macrophage induction was investigated in vitro by an induction and production system of spontaneous plaque-forming cell (SPEC) mentioned in M. Ishibashi, S. Jiang, Y. Kokado, S. Takahara, T. Sonoda: Immunopharmacologic effects of immunosuppressive agents explored by a new effector generation assay. Transplant Proc., 21: 1854-1858, 1989.
Heparin-added peripheral blood (40 ml) was collected from a healthy person and the same amount of EDTA-added physiological saline was added. PBMC were obtained by a specific gravity centrifugal method using Ficoll-Hypaque (manufactured by Pharmacia Fine Chemicals). Self-plasma was added thereto and allowed to stand at 37° C. for 10 minutes and platelets were removed by a low-speed centrifugal separation. RPMI 1640 liquid containing 15 μg/ml of gentamicin and 2 mM L-glutamine was used for washing the PBMC. Concentration of the PBMC was adjusted to 2×10^6 cells/ml using the same liquid.
Each 200 μl of a solution containing 2×10^6 PBMC/ml prepared in the step 1 were added to each well of a micro test plate, lipopolysaccharide (hereinafter, abbreviated as LPS) was diluted with the RPMI 1640 liquid to make the final concentration 80 μg/ml and the said LPS solution was added to each well of the 200 μl-micro test plate. Further, each 50 μl of human serum of type AB were added so as to make the concentration 10% by weight. Two such micro test plates were prepared.
After that, to the above two micro test plates was added a solution where the test compound was diluted with 1% by weight of DMSO so as to make the concentration of the test compound 1 μM. Similarly were prepared each two micro test plates where the final concentrations of the test compound were 0.1 μM, 0.01 μM and 0.001 μM.
The culture liquid prepared as such was incubated for 6 days at 37° C. in 5% CO2.
The effector macrophage induced after the incubation was all recovered using a rubber-policeman (spatula made of rubber). A Hanks solution containing 5 μg/ml of gentamicin was used for washing and, using the said solution, there was prepared a solution where the concentration of the induced effector macrophage was 2×10^6 per ml.
With regard to autologous erythrocytes, those which were preserved at 4° C. in a phosphate physiological saline (hereinafter, abbreviated as PBS) to which 0.1% by weight of AB serum and autologous erythrocytes obtained from PBMC separation were used were used. The preserved autologous erythrocytes were washed for three times with a Hanks solution to which no serum was added and made into a solution of 4% by weight concentration using the said Hanks solution. Poly-L-lysine was added to a Terasaki plate and washed with PBS every 20 minutes at 37° C., the above-mentioned autologous erythrocyte solution was added thereto immediately, the mixture was allowed to stand at 37° C. for 30 minutes and the erythrocytes which were not adhered to the plate were removed to prepare a Terasaki plate to which self-erythrocytes in a monolayer were adhered.
A Hanks solution (4 μl) was added to the said Terasaki plate, 4 μl of a solution containing the induced effector macrophage obtained in the step 3 were added thereto and the mixture was allowed to stand at 37° C. for 2 hours. After completion of the reaction, it was fixed by formalin. Numbers of the produced SPFC which were adhered or phagocytized were measured.
A mean SPFC production number was calculated from the measured values of SPFC production when the concentration of the test compound was the same. SPFC production number per 1×10^6 of the induced effector macrophage was calculated and, from the recovered induced effector macrophage numbers, total SPFC production amount (S2) was calculated.
As a control, no test compound was added and the same operation as above was carried out to calculate the total SPFC production amount (S1). […]

The subject of experiment [3] is obstruction-released kidney of male SD rats. Description: Obstruction release model after complete obstruction of unilateral ureter for 14 days (UUO/Release, Test Example 3). To be noted: for Suppressive Effect to Glomerular Lesion / Suppressive Effect to Lesion of Tubulointerstitial Tissue: Experimental Model of Rat: UUO/Release. It counts as in vivo, rat. Further details: key to Suppressive Effect to Glomerular Lesion / Suppressive Effect to Lesion of Tubulointerstitial Tissue: ∘: available; Δ: somewhat available; x: not available. As for the experimental part:
Obstruction Release Model after Complete Obstruction of Unilateral Ureter for 14 Days
Experimental models were prepared by a method devised and established by Ishibashi (Michio Ishibashi, et al.: The Japanese Journal of Nephrology, 42: 248, 2000) using male SD rats of 8-9 weeks age and about 280 g. Thus, the rat was laparotomized under anesthetization with ether and ureter was ligated with 7-0 Nylon at the height of the margin of lower pole of left kidney to close the abdomen. On the 14th day after obstruction, the obstruction was released and urinary passage was reconstructed using a cuff. Thus, after 14 days, the part of ligated obstructed ureter was resected, a polyethylene tube of 25 gages (manufactured by Nippon Sherwood) was used as a cuff and inserted into and retained at the lumen from the cut end of the lower normal ureter, then the cuff was also retained in the expanded upper ureter and each of them was ligated and fixed by 7-0 Nylon to reconstruct the urinary passage. At the same time, the right kidney at the opposite side was excised. After the release of the obstruction, body weight was measured, blood was collected on the 2nd day, 5th day and 7th day from the release to measure serum creatinine, then the rat was sacrificed under anesthetization and the left obstruction-released kidney was excised. With regard to the excised kidney, there were carried out measurement of weight of the kidney and pathological test for the kidney.
An in vivo biological test was carried out for the γ-lactone derivatives according to the present invention using the above models. With regard to the test compound, bulk powder of the test compound was dissolved in an aseptic physiological saline together with gum arabic and the final concentration of gum arabic was 5%(vol/vol). The concentration of the test compound 30 mg/ml was suspended in 5% gum arabic-saline solution. The preparation was subcutaneously injected at the dose of 30 mg/kg every day throughout the experiment. With regard to the test compound, there were used (9-1), (4-2) and (7-3) as the compounds of group I suppressing the SPFC production by allo-MLC stimulation, i.e., the compounds which selectively suppress the induction of effector macrophage in the presence of allo-MLC while there was used (3-2) as the compound of group II suppressing the SPFC production by LPS stimulation, i.e., the compounds which selectively suppress the induction of effector macrophage in the presence of LPS.
In the Table, “functional classification” of the compound means the above group I, group II and group III. “Compound” means the compound bearing each of the above-mentioned compound numbers. The fact whether glomerular lesion was suppressed was judged by the ameriolation of the lesions such as thickness of wall of Bowman's capsule, hyperplasia of mesangial cells and glomerular sclerosis. The fact whether lesion of tubulointerstitial tissue was suppressed was judged by the ameriolation of the lesions such as thickness of basement membrane of tubules, cellular infiltration and fibrosis of interstitial tissue. In the table, “control” is the result when the same test as above was carried out using 5% gum arabic only which is a solvent.
In order to further confirm whether the preventive and therapeutic effect of the γ-lactone derivatives of the present invention to the target cell damage is selective, (7-3) of the group I and (6-1) of the group II were used as test compounds and they were subcutaneously injected at the dose of 30 mg/kg every day and compared with the control group. With regard to the control group, only 5% gum arabic which is a solvent was used and the same test as above was carried out.

Where [4] appears, read: 144 h, human PBMC with mitomycin-treated human PBMC, incubated 6 days, Table 1, read-out: SPFC Production Inhibiting Concentration by all-MLC Stimulation (μM: IC50).
[5] abbreviates: 144 h, human PBMC with LPS 80 μg/ml, incubated 6 days, Table 1, read-out: SPFC Production Inhibiting Concentration by LPS Stimulation (μM: IC50).
[6] abbreviates: 30 mg/kg subcutaneously every day.
[7] abbreviates: 30 mg/kg subcutaneously every day, Table 2.
Setting [8] is: Homo sapiens, Table 5, read-out: Inhibiting Concentration for SPEC Production by allo-MLC Stimulation (μM: IC50).
Where [9] appears, read: Homo sapiens, Table 5, read-out: Inhibiting Concentration for SPEC Production by LPS Stimulation (μM: IC50).

Read-outs that look alike come from different tables or passages of the source. Bounds are passed on as bounds.

Consider `O=C1OC(O)(C(=O)OCc2ccccc2)c2ccccc21` (stereo not shown) [(7-1), Benzyl 1-hydroxy-3-oxo-1,3-dihydroisobenzofuran-1-carboxylate], for which the IC50 in experiment [1] (setting [4]) was determined as 0.1 µM; in experiment [2] (setting [5]), 1 µM. Further, the “functional group (selective suppression of SPFC production by allo-MLC or LPS stimulation)” value in experiment [1] is given as “group I”.
Regarding `N#CC1(C(=O)OCc2ccccc2)CCC(=O)O1` (stereo not shown) [(6-3), Benzyl 2-cyano-5-oxotetrahydrofuran-2-carboxylate], the IC50 is 0.1 µM in experiment [1] (setting [4]) and 0.001 µM in experiment [2] (setting [5]). In experiment [1], the “functional group (selective suppression of SPFC production by allo-MLC or LPS stimulation)” value is on record as “group II”.
Take `CC(OC(=O)[C@@]1(Oc2ccc(F)cc2)CCC(=O)O1)c1ccc2ccccc2c1` (mixture of isomers) [(3-2), (RS)-(+)-α-methyl-2-naphthalene-methyl 2-(4-fluorophenoxy)-5-oxotetrahydrofuran-2-carboxylate]: in experiment [3] (setting [6]), the “selectivity of the suppressive effect on renal lesions” value is on record as “selective suppressive effect”, the “suppression of glomerular lesion” value is reported as “suppressed the glomerular lesion only” and the “suppression of lesion of tubulointerstitial tissue” value is reported as “did not suppress”. In experiment [3] (setting [7]), the “Rate of Cases where Glomerular Lesion was Suppressed” value was 100% (5/5), the “Serum Creatinine level (mg/dl) on the 7th Day from Release of Obstruction” value turned out to be 2.0 ± 0.4 mg/dL and the “Weight of Kidney (g) on the 7th Day from Release of Obstruction” value worked out at 4.36 ± 0.95 g. In experiment [3], the “Suppressive Effect to Glomerular Lesion” value is listed as “∘” and the “Suppressive Effect to Lesion of Tubulointerstitial Tissue” value was “x”. Besides, the IC50 in experiment [1] (setting [4]) is more than 1 µM. Besides, in experiment [1] (setting [8]), the IC50 was more than 1 µM. In addition, the “functional group (selective suppression of SPFC production by allo-MLC or LPS stimulation)” value in experiment [1] is reported as “group II”. Also, in experiment [2] (setting [5]), the IC50 was found to be 1 µM. For the same compound, the IC50 in experiment [2] (setting [9]) came to 1 µM.
For `CC(OC(=O)[C@]1(Oc2ccc(F)cc2)CCC(=O)O1)c1ccc2ccccc2c1` (mixture of isomers) [(4-2), (RS)-(+)-α-methyl-2-naphthalene-methyl 2-(4-fluorophenoxy)-5-oxotetrahydrofuran-2-carboxylate], the “selectivity of the suppressive effect on renal lesions” value in experiment [3] (setting [6]) is given as “selective suppressive effect”. Moreover, in experiment [3] (setting [7]), the “Rate of Cases where Glomerular Lesion was Suppressed” value is listed as 50% (2/4), the “Rate of Cases where tubulointerstitial Lesion was Suppressed” value was 100% (4/4), the “Serum Creatinine level (mg/dl) on the 7th Day from Release of Obstruction” value is 2.7 ± 0.3 mg/dL and the “Weight of Kidney (g) on the 7th Day from Release of Obstruction” value amounted to 3.94 ± 0.32 g. Moreover, in experiment [3], the “Suppressive Effect to Glomerular Lesion” value is given as “Δ” and the “Suppressive Effect to Lesion of Tubulointerstitial Tissue” value is given as “∘”. Moreover, the IC50 in experiment [1] (setting [4]) was found to be 0.01 µM. Moreover, in experiment [1] (setting [8]), the IC50 was 0.01 µM. Also, the “functional group (selective suppression of SPFC production by allo-MLC or LPS stimulation)” value in experiment [1] was “group I”. In addition, the IC50 in experiment [2] (setting [5]) was more than 1 µM. Also, the IC50 in experiment [2] (setting [9]) is more than 1 µM.
For the compound `O=C(O)C(=O)c1ccccc1C(=O)O` [(7-7)], the IC50 in experiment [1] (setting [4]) was more than 1 µM; in experiment [2] (setting [5]) it was 0.01 µM. The “functional group (selective suppression of SPFC production by allo-MLC or LPS stimulation)” value in experiment [1] was “group II”.
For the compound `O=C1OC(F)(C(=O)OCc2ccccc2)c2ccccc21` (stereo not shown) [(7-2), Benzyl 1-fluoro-3-oxo-1,3-dihydro-isobenzofuran-1-carboxylate], the IC50 in experiment [1] (setting [4]) is more than 1 µM; in experiment [2] (setting [5]), 0.1 µM. Also, the “functional group (selective suppression of SPFC production by allo-MLC or LPS stimulation)” value in experiment [1] is on record as “group II”.
Take `O=C1CC[C@@](Oc2ccc(F)cc2)(C(=O)O)O1` [Compound (1), (−)-2-(4-fluorophenoxy)-5-oxotetrahydrofuran-2-carboxylic Acid]: the IC50 was 0.01 µM in experiment [1] (setting [4]) and more than 1 µM in experiment [2] (setting [5]). For the same compound, in experiment [1], the “functional group (selective suppression of SPFC production by allo-MLC or LPS stimulation)” value is “group I”.
On to `O=C1OC(Oc2ccc(F)cc2)(C(=O)O)c2ccccc21` (stereo not shown) [(7-6), 1-(4-fluorophenoxy)-3-oxo-1,3-dihydro-isobenzofuran-1-carboxylic Acid], for which the results for the IC50 in experiment [1] (setting [4]) and in experiment [2] (setting [5]) were more than 1 µM and 0.01 µM, respectively. Besides, the “functional group (selective suppression of SPFC production by allo-MLC or LPS stimulation)” value in experiment [1] was “group II”.
`O=C1CCC(Cc2ccccc2)(C(=O)OCc2ccccc2)O1` (stereo not shown) [(5-4), Benzyl 2-benzyl-5-oxo-tetrahydrofuran-2-carboxylate]: the values for the IC50 in experiment [1] (setting [4]) and in experiment [2] (setting [5]) were 0.01 µM and 1 µM, respectively. For the same compound, the “functional group (selective suppression of SPFC production by allo-MLC or LPS stimulation)” value in experiment [1] is “group I”.
As to `O=C1CCC(Cc2ccc(F)cc2)(C(=O)O)O1` (stereo not shown) [(5-2), 2-(4-fluorobenzyl)-5-oxo-tetrahydrofuran-2-carboxylic Acid], the figures for the IC50 in experiment [1] (setting [4]) and in experiment [2] (setting [5]) were 0.1 µM and 0.01 µM, respectively. Also, the “functional group (selective suppression of SPFC production by allo-MLC or LPS stimulation)” value in experiment [1] is given as “group II”.
The corresponding values for `O=C1OC(Oc2ccc(F)cc2)(C(=O)OCc2ccccc2)c2ccccc21` (stereo not shown) [(7-5), Benzyl 1-(4-fluorophenoxy)-3-oxo-1,3-dihydroisobenzofuran-1-carboxylate] are 0.01 µM, more than 1 µM and “group I”.
